Measurements: ChEMBL document CHEMBL1287797, “Design and synthesis of harzialactone analogues: promising anticancer agents” (2010)

Experiments:
Assay type in all cases: functional
[1] = Anticancer activity against mouse P388D1 cells assessed as inhibition of cell growth at 80 ug/ml by MTT assay
ZR-75-1 [2] = experiment: Anticancer activity against human ZR-75-1 cells assessed as inhibition of cell growth at 40 ug/ml by MTT assay
COLO 205 [3] = experiment: Anticancer activity against human COLO205 cells assessed as inhibition of cell growth at 60 ug/ml by MTT assay
HL-60 [4] = experiment: Anticancer activity against human HL60 cells assessed as inhibition of cell growth at 10 ug/ml by MTT assay
HeLa [5] = experiment: Anticancer activity against human HeLa cells assessed as inhibition of cell growth at 10 ug/ml by MTT assay
[6] = Anticancer activity against mouse P388D1 cells assessed as inhibition of cell growth at 40 ug/ml by MTT assay
[7] = Anticancer activity against mouse P388D1 cells assessed as inhibition of cell growth at 10 ug/ml by MTT assay
HL-60 [8] = experiment: Anticancer activity against human HL60 cells assessed as inhibition of cell growth at 60 ug/ml by MTT assay
ZR-75-1 [9] = experiment: Anticancer activity against human ZR-75-1 cells assessed as inhibition of cell growth at 100ug/ml by MTT assay
HL-60 [10] = experiment: Anticancer activity against human HL60 cells assessed as inhibition of cell growth at 5 ug/ml by MTT assay
[11] = Anticancer activity against mouse P388D1 cells assessed as inhibition of cell growth at 20 ug/ml by MTT assay
COLO 205 [12] = experiment: Anticancer activity against human COLO205 cells assessed as inhibition of cell growth at 80 ug/ml by MTT assay
COLO 205 [13] = experiment: Anticancer activity against human COLO205 cells assessed as inhibition of cell growth at 10 ug/ml by MTT assay
COLO 205 [14] = experiment: Anticancer activity against human COLO205 cells assessed as inhibition of cell growth at 40 ug/ml by MTT assay
ZR-75-1 [15] = experiment: Anticancer activity against human ZR-75-1 cells assessed as inhibition of cell growth at 10 ug/ml by MTT assay
ZR-75-1 [16] = experiment: Anticancer activity against human ZR-75-1 cells assessed as inhibition of cell growth at 5 ug/ml by MTT assay
COLO 205 [17] = experiment: Anticancer activity against human COLO205 cells assessed as inhibition of cell growth at 20 ug/ml by MTT assay
ZR-75-1 [18] = experiment: Anticancer activity against human ZR-75-1 cells assessed as inhibition of cell growth at 80 ug/ml by MTT assay
ZR-75-1 [19] = experiment: Anticancer activity against human ZR-75-1 cells assessed as inhibition of cell growth at 60 ug/ml by MTT assay
HeLa [20] = experiment: Anticancer activity against human HeLa cells assessed as inhibition of cell growth at 60 ug/ml by MTT assay
[21] = Anticancer activity against mouse P388D1 cells assessed as inhibition of cell growth at 100ug/ml by MTT assay
HeLa [22] = experiment: Anticancer activity against human HeLa cells assessed as inhibition of cell growth at 5 ug/ml by MTT assay
COLO 205 [23] = experiment: Anticancer activity against human COLO205 cells assessed as inhibition of cell growth at 100ug/ml by MTT assay
HeLa [24] = experiment: Anticancer activity against human HeLa cells assessed as inhibition of cell growth at 100ug/ml by MTT assay
HL-60 [25] = experiment: Anticancer activity against human HL60 cells assessed as inhibition of cell growth at 80 ug/ml by MTT assay
HeLa [26] = experiment: Anticancer activity against human HeLa cells assessed as inhibition of cell growth at 80 ug/ml by MTT assay
HeLa [27] = experiment: Anticancer activity against human HeLa cells assessed as inhibition of cell growth at 20 ug/ml by MTT assay
HeLa [28] = experiment: Anticancer activity against human HeLa cells assessed as inhibition of cell growth at 40 ug/ml by MTT assay
HL-60 [29] = experiment: Anticancer activity against human HL60 cells assessed as inhibition of cell growth at 100ug/ml by MTT assay
[30] = Anticancer activity against mouse P388D1 cells assessed as inhibition of cell growth at 60 ug/ml by MTT assay
HL-60 [31] = experiment: Anticancer activity against human HL60 cells assessed as inhibition of cell growth at 40 ug/ml by MTT assay
HL-60 [32] = experiment: Anticancer activity against human HL60 cells assessed as inhibition of cell growth at 20 ug/ml by MTT assay
COLO 205 [33] = experiment: Anticancer activity against human COLO205 cells assessed as inhibition of cell growth at 5 ug/ml by MTT assay
[34] = Anticancer activity against mouse P388D1 cells assessed as inhibition of cell growth at 5 ug/ml by MTT assay
ZR-75-1 [35] = experiment: Anticancer activity against human ZR-75-1 cells assessed as inhibition of cell growth at 20 ug/ml by MTT assay

`O=C1O[C@@H](CCc2ccccc2)C[C@H]1O` gave an inhibition at 80 µg/mL [1] of 40%, an inhibition at 40 µg/mL (ZR-75-1 [2]) of 37.4% and an inhibition at 60 µg/mL (COLO 205 [3]) of 36%. The inhibition at 10 µg/mL (HL-60 [4]) was 31%, the inhibition at 10 µg/mL (HeLa [5]) was 31.3% and the inhibition at 40 µg/mL [6] was 37.6%. For the same compound, the inhibition at 10 µg/mL [7] was 31.5%, the inhibition at 60 µg/mL (HL-60 [8]) was 40% and the inhibition at 100 µg/mL (ZR-75-1 [9]) was 50.7%. For the same compound, the inhibition at 5 µg/mL (HL-60 [10]) was 28.4%, the inhibition at 20 µg/mL [11] was 35.2% and the inhibition at 80 µg/mL (COLO 205 [12]) was 65.3%. The inhibition at 10 µg/mL (COLO 205 [13]) was 16.8%, the inhibition at 40 µg/mL (COLO 205 [14]) was 25.4% and the inhibition at 10 µg/mL (ZR-75-1 [15]) was 35.7%. It also gave an inhibition at 5 µg/mL (ZR-75-1 [16]) of 29.5%, an inhibition at 20 µg/mL (COLO 205 [17]) of 22.8% and an inhibition at 80 µg/mL (ZR-75-1 [18]) of 43.6%. For the same compound, the inhibition at 60 µg/mL (ZR-75-1 [19]) was 37.9%, the inhibition at 60 µg/mL (HeLa [20]) was 39% and the inhibition at 100 µg/mL [21] was 45.1%. The inhibition at 5 µg/mL (HeLa [22]) was 23.4%, the inhibition at 100 µg/mL (COLO 205 [23]) was 69.3% and the inhibition at 100 µg/mL (HeLa [24]) was 62.4%. For the same compound, the inhibition at 80 µg/mL (HL-60 [25]) was 43.2%, the inhibition at 80 µg/mL (HeLa [26]) was 41% and the inhibition at 20 µg/mL (HeLa [27]) was 31.3%. For the same compound, the inhibition at 40 µg/mL (HeLa [28]) was 34%, the inhibition at 100 µg/mL (HL-60 [29]) was 49% and the inhibition at 60 µg/mL [30] was 38.3%. For the same compound, the inhibition at 40 µg/mL (HL-60 [31]) was 38.7%, the inhibition at 20 µg/mL (HL-60 [32]) was 36.8% and the inhibition at 5 µg/mL (COLO 205 [33]) was 9.18%. It also gave an inhibition at 5 µg/mL [34] of 27.8% and an inhibition at 20 µg/mL (ZR-75-1 [35]) of 36.1%.
For `O=C1O[C@@H](CCc2ccc(Br)cc2)C[C@H]1O`, the inhibition at 80 µg/mL [1] was 40.7%, the inhibition at 40 µg/mL (ZR-75-1 [2]) was 36.6% and the inhibition at 60 µg/mL (COLO 205 [3]) was 43.3%. The inhibition at 10 µg/mL (HL-60 [4]) was 22.6%, the inhibition at 10 µg/mL (HeLa [5]) was 52.5% and the inhibition at 40 µg/mL [6] was 34.6%. The inhibition at 10 µg/mL [7] was 25.9%, the inhibition at 60 µg/mL (HL-60 [8]) was 32.6% and the inhibition at 100 µg/mL (ZR-75-1 [9]) was 42.3%. For the same compound, the inhibition at 5 µg/mL (HL-60 [10]) was 20.6%, the inhibition at 20 µg/mL [11] was 31.5% and the inhibition at 80 µg/mL (COLO 205 [12]) was 72.2%. For the same compound, the inhibition at 10 µg/mL (COLO 205 [13]) was 26.2%, the inhibition at 40 µg/mL (COLO 205 [14]) was 40.9% and the inhibition at 10 µg/mL (ZR-75-1 [15]) was 33%. The inhibition at 5 µg/mL (ZR-75-1 [16]) was 20.9%, the inhibition at 20 µg/mL (COLO 205 [17]) was 29.4% and the inhibition at 80 µg/mL (ZR-75-1 [18]) was 38.3%. For the same compound, the inhibition at 60 µg/mL (ZR-75-1 [19]) was 37%, the inhibition at 60 µg/mL (HeLa [20]) was 60.6% and the inhibition at 100 µg/mL [21] was 52.5%. For the same compound, the inhibition at 5 µg/mL (HeLa [22]) was 52.3%, the inhibition at 100 µg/mL (COLO 205 [23]) was 75.8% and the inhibition at 100 µg/mL (HeLa [24]) was 69.1%. It also gave an inhibition at 80 µg/mL (HL-60 [25]) of 47.7%, an inhibition at 80 µg/mL (HeLa [26]) of 62.5% and an inhibition at 20 µg/mL (HeLa [27]) of 54.4%. The inhibition at 40 µg/mL (HeLa [28]) was 57.5%, the inhibition at 100 µg/mL (HL-60 [29]) was 52.9% and the inhibition at 60 µg/mL [30] was 40.1%. The inhibition at 40 µg/mL (HL-60 [31]) was 39.4%, the inhibition at 20 µg/mL (HL-60 [32]) was 24.5% and the inhibition at 5 µg/mL (COLO 205 [33]) was 23.1%. For the same compound, the inhibition at 5 µg/mL [34] was 10.5% and the inhibition at 20 µg/mL (ZR-75-1 [35]) was 35.2%.
Work on `CO[C@@]12[C@H](COC(N)=O)C3=C(C(=O)C(C)=C(N)C3=O)N1C[C@@H]1N[C@@H]12` [MITOMYCIN] yielded an inhibition at 5 µg/mL (HL-60 [10]) of 53.2%, an inhibition at 5 µg/mL (ZR-75-1 [16]) of 51.3% and an inhibition at 5 µg/mL (HeLa [22]) of 56.5%. The inhibition at 5 µg/mL (COLO 205 [33]) was 56.3% and the inhibition at 5 µg/mL [34] was 55.4%.
